Laboratory results: patent publication US12466813B2, “PRC1 inhibitors and methods of treatment therewith” (The Regents of the University of Michigan, priority 2018, dated 2025)

Each compound was assayed against T1, RING1B-BMI1 (Homo sapiens, UniProt Q99496) (assay: KD classes of Table A (direct binding to Ring1B-Bmi1)). Settings: class given in Table A.
T1 sequence (Q99496 1-336): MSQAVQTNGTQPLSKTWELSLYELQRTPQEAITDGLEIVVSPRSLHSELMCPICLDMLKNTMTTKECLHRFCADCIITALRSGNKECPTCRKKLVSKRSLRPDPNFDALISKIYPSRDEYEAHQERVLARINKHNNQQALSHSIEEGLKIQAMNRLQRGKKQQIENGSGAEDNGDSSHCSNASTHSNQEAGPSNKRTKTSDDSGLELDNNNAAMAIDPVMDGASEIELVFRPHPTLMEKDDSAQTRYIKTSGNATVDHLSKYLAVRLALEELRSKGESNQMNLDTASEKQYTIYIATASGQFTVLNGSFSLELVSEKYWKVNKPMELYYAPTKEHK
T1 sequence (P35226 1-326 partner): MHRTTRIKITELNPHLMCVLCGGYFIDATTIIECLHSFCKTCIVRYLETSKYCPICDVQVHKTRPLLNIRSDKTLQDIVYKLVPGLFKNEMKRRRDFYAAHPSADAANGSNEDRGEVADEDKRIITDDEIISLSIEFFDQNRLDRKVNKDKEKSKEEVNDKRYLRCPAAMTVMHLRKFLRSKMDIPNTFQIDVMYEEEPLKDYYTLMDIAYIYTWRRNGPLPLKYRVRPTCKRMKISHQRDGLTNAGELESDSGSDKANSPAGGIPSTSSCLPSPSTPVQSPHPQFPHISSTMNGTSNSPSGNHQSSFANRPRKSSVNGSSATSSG
Experimental: Experiments were conducted during development of embodiments herein to develop small molecule inhibitors of PRC1 by targeting the Ring1B-BMI1 E3 ligase. These compounds bind directly to Ring1B-Bmi1 with low-micromolar affinity and inhibit PRC1 in vitro and in cells. […] Experiments were conducted during development of embodiments herein to test COMPOUND 1 in leukemia stem cell models represented by TEX cells (Ref. 22; herein incorporated by reference in its entirety) and M9-ENL1 cells (Ref. 23; herein incorporated by reference in its entirety). […] In some embodiments, COMPOUND 1 and COMPOUND 1 analogs are find use as agents in targeting leukemia and other cancer stem cells.
The compounds listed in Table A have been synthesized and/or tested for activity in inhibiting activity of PRC1 complex, and are within the scope herein.

| Kd | Structure (SMILES) |
| --- | --- |
| < 20 µM | CCc1c(-c2c(C)ccc3[nH]ccc23)[nH]c(C(=O)O)c1-c1cccc2[nH]ccc12 [compound 2] |
| < 20 µM | COc1cc(Cl)c(-c2c(C(=O)O)[nH]c(-c3cccc4[nH]ccc34)c2C(C)C)cc1[N+](=O)[O-] [compound 3] |
| < 20 µM | CC(C)c1c(-c2cccc3[nH]ccc23)[nH]c(C(=O)O)c1-c1cc([N+](=O)[O-])c(O)cc1Cl [compound 4] |
| < 20 µM | COc1cc(Cl)c(-c2c(C(=O)O)[nH]c(-c3cccc4[nH]ccc34)c2C(C)C)cc1N [compound 5] |
| < 20 µM | CCc1c(-c2c(C)ccc3[nH]ccc23)[nH]c(C(=O)O)c1-c1c(Cl)ccc2[nH]ccc12 [compound 6] |
| < 20 µM | Cc1ccc2[nH]ccc2c1-c1[nH]c(C(=O)O)c(-c2c(Cl)ccc3[nH]ccc23)c1C(C)C [compound 7] |
| < 20 µM | Cc1cc(-c2[nH]c(C(=O)O)c(-c3c(Cl)ccc4[nH]ccc34)c2C(C)C)c2cc[nH]c2c1 [compound 8] |
| < 20 µM | CCc1cc(-c2[nH]c(C(=O)O)c(-c3c(Cl)ccc4[nH]ccc34)c2C(C)C)c2cc[nH]c2c1 [compound 9] |
| < 20 µM | CC(C)c1c(-c2cc(C(F)(F)F)cc3[nH]ccc23)[nH]c(C(=O)O)c1-c1c(Cl)ccc2[nH]ccc12 [compound 10] |
| < 20 µM | COc1cc(-c2[nH]c(C(=O)O)c(-c3c(Cl)ccc4[nH]ccc34)c2C(C)C)c2cc[nH]c2c1 [compound 11] |
| < 20 µM | CC(C)c1c(-c2cc(O)cc3[nH]ccc23)[nH]c(C(=O)O)c1-c1c(Cl)ccc2[nH]ccc12 [compound 12] |
| < 20 µM | CC(C)c1c(-c2cc(Cl)cc3[nH]ccc23)[nH]c(C(=O)O)c1-c1c(Cl)ccc2[nH]ccc12 [compound 13] |
| < 20 µM | CC(C)c1c(-c2cc(F)cc3[nH]ccc23)[nH]c(C(=O)O)c1-c1c(Cl)ccc2[nH]ccc12 [compound 14] |
| < 20 µM | CCc1c(-c2cccc3[nH]ccc23)[nH]c(C(=O)O)c1-c1ccc(OC)cc1Br [compound 15] |
| < 20 µM | CCc1c(-c2cccc3[nH]ccc23)[nH]c(C(=O)O)c1-c1c(Cl)ccc2[nH]ccc12 [compound 16] |
| < 20 µM | CC(C)c1c(-c2cccc3[nH]ccc23)[nH]c(C(=O)O)c1-c1ccccc1Cl [compound 17] |
| < 20 µM | CCc1c(-c2cccc3[nH]ccc23)[nH]c(C(=O)O)c1-c1c(Cl)cc(OC)c2[nH]ccc12 [compound 18] |
| < 20 µM | COc1ccc(-c2c(C(=O)O)[nH]c(-c3cccc4[nH]ccc34)c2C(C)C)c(Cl)c1 [compound 19] |
| < 20 µM | CCc1c(-c2cccc3[nH]ccc23)[nH]c(C(=O)O)c1-c1cccc2[nH]ccc12 [compound 20] |
| < 20 µM | CCc1c(-c2cccc3[nH]ccc23)[nH]c(C(=O)O)c1-c1cccc2c1ccn2CC [compound 21] |
| < 20 µM | CCc1c(-c2ccc(C)c3[nH]ccc23)[nH]c(C(=O)O)c1-c1cccc2[nH]ccc12 [compound 22] |
| < 20 µM | CCOc1ccc(-c2c(C(=O)O)[nH]c(-c3cccc4[nH]ccc34)c2CC)c(Cl)c1 [compound 23] |
| < 20 µM | CCc1c(-c2cccc3[nH]ccc23)[nH]c(C(=O)O)c1-c1ccc(OC)cc1Cl [compound 24] |
| < 20 µM | CCc1c(-c2cccc3[nH]ccc23)[nH]c(C(=O)O)c1-c1ccc2cc[nH]c2c1 [compound 25] |
| < 20 µM | Cc1c[nH]c2cccc(-c3[nH]c(C(=O)O)c(-c4c(Cl)ccc5[nH]ccc45)c3C(C)C)c12 [compound 26] |
| < 20 µM | CC(C)c1c(-c2cccc3[nH]cc(CCO)c23)[nH]c(C(=O)O)c1-c1c(Cl)ccc2[nH]ccc12 [compound 27] |

| Kd | Structure (SMILES) |
| --- | --- |
| < 20 µM | CC(C)c1c(-c2cc(F)cc3[nH]cc(CCO)c23)[nH]c(C(=O)O)c1-c1c(Cl)ccc2[nH]ccc12 [compound 28] |
| < 20 µM | O=C(O)c1[nH]c(-c2cccc3[nH]ccc23)c(C2CC2)c1-c1cccc2[nH]ccc12 [compound 29] |
| < 20 µM | CC(c1c(-c2cccc3[nH]ccc23)[nH]c(C(=O)O)c1-c1cccc2[nH]ccc12)C(F)F (stereo not drawn) [compound 30, 4-(1,1-Difluoropropan-2-yl)-3,5-di(1H-indol-4-yl)-1H-pyrrole-2-carboxylic acid] |
| < 20 µM | CC(CO)c1c(-c2cccc3[nH]ccc23)[nH]c(C(=O)O)c1-c1cccc2[nH]ccc12 (stereo not drawn) [compound 31] |
| < 20 µM | CC(CF)c1c(-c2cccc3[nH]ccc23)[nH]c(C(=O)O)c1-c1cccc2[nH]ccc12 (stereo not drawn) [compound 32] |
| < 20 µM | CC(C)c1c(-c2cccc3[nH]ccc23)[nH]c(C(=O)O)c1-c1cccc2[nH]ccc12 [compound 33] |
| < 20 µM | Cc1c[nH]c2cccc(-c3c(C(=O)O)[nH]c(-c4cccc5[nH]ccc45)c3C(C)C)c12 [compound 34] |
| < 20 µM | CC(C)c1c(-c2cc(F)cc3[nH]ccc23)[nH]c(C(=O)O)c1-c1cccc2[nH]ccc12 [compound 35] |
| < 20 µM | CC(C)c1c(-c2cc(F)cc3[nH]ccc23)[nH]c(C(=O)O)c1-c1cc(F)cc2[nH]ccc12 [compound 36] |
| < 20 µM | COc1ccc(-c2c(C(=O)O)[nH]c(-c3cc(F)cc4[nH]ccc34)c2C(C)C)c2cc[nH]c12 [compound 37] |
| < 20 µM | CC(C)c1c(-c2cc(F)cc3[nH]ccc23)[nH]c(C(=O)O)c1-c1ccc2[nH]ccc2c1 [compound 38] |
| < 20 µM | COc1cc(-c2c(C(=O)O)[nH]c(-c3cc(F)cc4[nH]ccc34)c2C(C)C)c2cc[nH]c2c1 [compound 39] |
| < 20 µM | CC(C)c1c(-c2cc(F)cc3[nH]ccc23)[nH]c(C(=O)O)c1-c1cccc2[nH]ncc12 [compound 40] |
| < 20 µM | CC(C)c1c(-c2cc(F)cc3[nH]ccc23)[nH]c(C(=O)O)c1-c1cc(Cl)cc2[nH]ccc12 [compound 41] |
| < 20 µM | CCOc1cc(-c2c(C(=O)O)[nH]c(-c3cc(F)cc4[nH]ccc34)c2C(C)C)c2cc[nH]c2c1 [compound 42] |
| < 20 µM | CC(C)c1c(-c2cc(F)cc3[nH]ccc23)[nH]c(C(=O)O)c1-c1cc(C(F)(F)F)cc2[nH]ccc12 [compound 43] |
| < 20 µM | CC(C)c1c(-c2cc(F)cc3[nH]ccc23)[nH]c(C(=O)O)c1-c1cccc2c1ccn2CCO [compound 44] |
| < 20 µM | CCc1cc(-c2c(C(=O)O)[nH]c(-c3cc(F)cc4[nH]ccc34)c2C(C)C)c2cc[nH]c2c1 [compound 45] |
| < 20 µM | COc1cc(-c2c(C(=O)O)[nH]c(-c3cc(F)cc4[nH]ccc34)c2C(C)C)c2ccn(CC(=O)O)c2c1 [compound 46] |
| < 20 µM | CC(C)c1c(-c2cc(F)cc3[nH]ccc23)[nH]c(C(=O)O)c1-c1cccc2[nH]c(C(=O)O)cc12 [compound 47] |
| < 20 µM | CC(C)c1c(-c2cc(F)cc3[nH]ccc23)[nH]c(C(=O)O)c1-c1cc(OC(F)(F)F)cc2[nH]ccc12 [compound 48] |
| < 20 µM | CC(C)c1c(-c2cccc3[nH]c(C(=O)O)cc23)[nH]c(C(=O)O)c1-c1c(Cl)ccc2[nH]ccc12 [compound 49] |
| < 20 µM | COc1cc(-c2c(C(=O)O)[nH]c(-c3cc(F)cc4[nH]ccc34)c2C(C)C)c2cc(C(=O)O)[nH]c2c1 [compound 50] |
| < 20 µM | Cc1cc(-c2c(C(=O)O)[nH]c(-c3cc(F)cc4[nH]ccc34)c2C(C)C)c2cc[nH]c2c1 [compound 51] |
| < 20 µM | CC(C)c1c(-c2cccc3[nH]c(CO)cc23)[nH]c(C(=O)O)c1-c1c(Cl)ccc2[nH]ccc12 [compound 52] |
